Results from article PMC12612596, “Real‐time FRET assay for monitoring detyrosination by TMCP1 and VASH2” (Protein Science : A Publication of the Protein Society, 2025).
Where two headings read alike, the source gives them in different places. Where a SMILES comes first, the peptide text is derived from it.

Experiments:
TMCP1 [1] = target: T1, TMCP1 (Homo sapiens, UniProt Q68EN5); details: tubulin as substrate; ref Nicot et al., 2023; cited from earlier work
T1 construct: TMCP1 open Reading Frame (ORF) was cloned into pET28A+; 6His (N); made in house; host or cells: Escherichia coli BL21 Star (DE3)
T1 sequence (Q68EN5 1-471): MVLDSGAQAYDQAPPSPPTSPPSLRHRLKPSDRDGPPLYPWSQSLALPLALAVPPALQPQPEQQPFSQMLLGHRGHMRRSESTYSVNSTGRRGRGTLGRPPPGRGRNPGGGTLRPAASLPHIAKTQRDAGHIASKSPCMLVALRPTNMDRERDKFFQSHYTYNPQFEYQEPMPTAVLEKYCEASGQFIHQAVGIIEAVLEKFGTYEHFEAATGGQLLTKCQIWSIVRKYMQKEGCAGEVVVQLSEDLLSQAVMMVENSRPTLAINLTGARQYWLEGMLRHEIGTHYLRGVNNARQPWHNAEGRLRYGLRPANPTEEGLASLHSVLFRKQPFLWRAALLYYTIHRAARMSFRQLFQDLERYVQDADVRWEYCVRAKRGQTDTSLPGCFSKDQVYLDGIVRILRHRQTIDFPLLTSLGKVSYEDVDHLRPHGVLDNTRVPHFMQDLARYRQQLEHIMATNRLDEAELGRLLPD
Description: In addition, considering that TMCP1 is a metallocarboxypeptidase, its metal ion dependency was also assessed (Figure 4e). First, the metal ions present in the active site of TMCP1 were chelated with 50 μM EDTA. Subsequently, ZnCl₂, MnCl₂, or CoCl₂ were added at varying concentrations (>50 μM) to determine their impact on the restoration of enzymatic activity.

TMCP1 [2] = target: T1, TMCP1; assay: TMCP1 FRET enzyme activity assay under altered conditions (inhibitors, salts, metal ions, buffers, competition; substrate FS2); assay type: biochemical; details: for Effect of divalent metal ion on TMCP1 activity (in words): TMCP1 pre-treated with 50 μM EDTA 10 min at room temperature, metal ion >50 μM, 30 min at 37 °C, then FS2
Description: Protein production and purification steps were previously described (Nicot et al., [2023]). Briefly, TMCP1 open Reading Frame (ORF) was cloned into pET28A+ to produce 6His N‐terminally tagged TMCP1. Transformed Escherichia coli strain BL21 Star (DE3) was grown at 37°C until the optical density (OD600) reached 0.6; then the culture was induced with 0.5 mM isopropyl‐β‐d‐thiogalactoside (IPTG) overnight at 18°C. Cells were pelleted for 15 min at 5000 g and resuspended in a 50 mM Tris–HCl buffer (pH 7.4), 500 mM NaCl, 2 mM TCEP, 0.1% Tween. Cell lysis was performed by sonication followed by centrifugation at 20,000×g for 30 min at 4°C. The supernatant was incubated with pre‐washed Ni‐NTA agarose beads (Qiagen) at 4°C for 2 h. Beads were washed extensively in lysis buffer supplemented with 20 mM imidazole and 0.1% Triton. Elutions were performed in a 50 mM Tris–HCl buffer (pH 7.5), 500 mM NaCl, 250 mM imidazole and 1 mM TCEP. The eluted fractions containing proteins were dialyzed overnight at 4°C against 50 mM Tris–HCl buffer (pH 7.5), 300 mM NaCl, 1 mM TCEP using 10 kDa dialysis cassettes. The dialyzed samples were then concentrated and buffer‐exchanged in a 50 mM Tris–HCl buffer (pH 7.5), 200 mM NaCl, 1 mM TCEP using 10 kDa Amicon centrifugal filter units (Amicon Ultra‐4 Merck Millipore). TMCP1 was then snap frozen and stored at −80°C in aliquots.
For each experiment, a fresh stock solution of the fluorescent peptide substrates (5 mM in DMSO), was prepared and protected from light. […] VASH2/SVPB was used at a final concentration of 235 nM, obtained by diluting a 94 μM stock solution (stored at −80°C) at a 1:400 ratio. Enzymatic kinetics experiments were performed in triplicate by measuring the fluorescence of the FRET peptide substrates cleaved by the two enzymes. The cleavage releases a nitro‐tyrosine residue, which acts as a quencher. Its removal leads to an increase of fluorescence, which was quantified fluorometrically (Ex/Em = 320/420 nm) using a SpectraMax i3x (Molecular Devices) microplate reader.
Data were analyzed using GraphPad Prism, with a dedicated curve fitting applied. A Gaussian bell‐shaped curve was used for the optimal pH study, and dose–response inhibition curves were generated by plotting the concentration of NaCl, EDTA, NS3, etc., against the normalized initial velocity (Vi) corresponding to enzyme activity. Data were normalized so that the curve ranged from 100 to 0% activity.
Optimal pH was established using a 50 mM Tris–HCl buffer, with the pH adjusted to the desired value (ranging 4–11) using 0.1 M NaOH or HCl solutions. For the ionic strength experiments, a 500 mM NaCl stock solution in a 50 mM Tris–HCl buffer was used as a starting point for serial dilution (500–0 mM). For EDTA analysis, a 10 mM stock solution was prepared and fully solubilized by vigorous stirring at 80°C. EDTA (0.004 to 400 μM) was then incubated with TMCP1, for 30 min at 37°C before adding the fluorescent substrate and starting the fluorescence measurement. Subsequently, an identical experiment was conducted using 2‐fold serial dilutions to refine the curve around the previously determined IC50.
For metal ion dependency assays, the enzyme was first incubated with 50 μM of EDTA for 10 min at room temperature. Then, serial dilutions were performed from 100 mM stock solutions of each metal ion (ZnCl₂, CoCl₂, and MnCl₂.).
Finally, the competition assay was performed similarly, except that the 96‐well plate was kept on ice during the serial dilution of the NS3 substrate and its addition into the wells.

VASH2/SVBP = target: T2, VASH2/SVBP (Homo sapiens, UniProt Q86V25+Q8N300); assay: VASH2 FRET inhibition assay (substrate FS2); assay type: biochemical
T2 construct: His (N); T7 (N); made in house; host or cells: Escherichia coli BL21 Star (DE3)
Description: Serial dilutions were prepared prior to enzyme addition (235 nM final concentration) to minimize time‐dependent inhibition effects and to avoid premature covalent modification of the enzyme during the dilution steps. […]

VASH1 = test system: VASH1; set-up: method as in Feral et al., 2025; details: ref Feral et al., 2025; cited from earlier work
VASH1/SVBP = assay: LC-MS analysis of NS3 cleavage by VASH1/SVBP; assay type: biochemical
[3] = target: Tubulin MetalloCarboxyPeptidase 1 (TMCP1) (UniProt Q68EN5)

T2 sequence (Q86V25 whole entry, species assumed): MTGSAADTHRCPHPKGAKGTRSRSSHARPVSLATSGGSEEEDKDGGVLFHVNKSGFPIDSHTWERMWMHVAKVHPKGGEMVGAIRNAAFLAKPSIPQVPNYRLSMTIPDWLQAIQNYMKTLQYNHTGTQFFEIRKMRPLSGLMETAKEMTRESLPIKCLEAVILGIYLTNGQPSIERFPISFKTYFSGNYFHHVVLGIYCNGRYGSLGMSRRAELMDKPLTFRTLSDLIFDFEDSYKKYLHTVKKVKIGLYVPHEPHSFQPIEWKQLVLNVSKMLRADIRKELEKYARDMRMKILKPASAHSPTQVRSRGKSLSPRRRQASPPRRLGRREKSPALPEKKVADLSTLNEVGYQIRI
T2 sequence (Q8N300 whole entry partner, species assumed): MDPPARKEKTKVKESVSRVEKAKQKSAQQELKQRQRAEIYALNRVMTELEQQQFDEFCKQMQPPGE

Compound: [Cl-].[Cl-].[Co+2] [CoCl₂]
- Effect of metal ion on TMCP1 (immunoblot, in words) (TMCP1 [1]): strongly activated
- Effect of divalent metal ion on TMCP1 activity (in words) (TMCP1 [2]; n = 3): highly effective not only at restoring but even increasing TMCP1 activity, although its effectiveness was reduced at higher concentrations
- Effect of divalent metal ion on TMCP1 activity (in words) (TMCP1 [2]; n = 3, listed as Co^2+): enhance its activity in a concentration‐dependent manner

Compound: O=C(O)CN(CCN(CC(=O)O)CC(=O)O)CC(=O)O [EDTA, reference compound]
- IC50 (TMCP1 [2]): 2.15 µM

Compound: O=C(O)CN(CCOCCOCCN(CC(=O)O)CC(=O)O)CC(=O)O [EGTA, reference compound]
- TMCP1 activity with EGTA (in words) (TMCP1 [2]; 1 mM EGTA in Tris-HCl buffer): complete loss of enzymatic activity

Compound: CCOC(=O)C1OC1C(=O)N[C@@H](Cc1ccc(O)cc1)C(=O)O (some centres unmarked) [EpoY]
- IC50 (VASH2/SVBP): 420 nM
- VASH1 inhibition (in words) (VASH1): blocking VASH1

Compound: [Cl-].[Cl-].[Mg+2] [MgCl₂]
- TMCP1 activity with MgCl₂ (in words) (TMCP1 [2]; 80 mM PIPES with or without 1 mM MgCl₂, compared to 50 mM Tris-HCl): enzyme activity comparable to those obtained in 50 mM Tris–HCl

Compound: [Cl][Mn][Cl] [MnCl₂]
- Effect of metal ion on TMCP1 (immunoblot, in words) (TMCP1 [1]): strongly activated
- Effect of divalent metal ion on TMCP1 activity (in words) (TMCP1 [2]; n = 3): also restored the activity but unlike CoCl₂, it did so in a concentration‐dependent manner
- Effect of divalent metal ion on TMCP1 activity (in words) (TMCP1 [2]; n = 3, listed as Mn^2+): enhance its activity in a concentration‐dependent manner

Compound: CC(=O)N[C@H](C(=O)N[C@@H](CCC(=O)O)C(=O)NCC(=O)N[C@@H](CCC(=O)O)C(=O)NCC(=O)N[C@@H](CCC(=O)O)C(=O)N[C@@H](CCC(=O)O)C(=O)N[C@@H](CCC(=O)O)C(=O)NCC(=O)N[C@@H](CCC(=O)O)C(=O)N[C@@H](CCC(=O)O)C(=O)N[C@@H](Cc1ccc(O)cc1)C(=O)O)C(C)C [NS3] (Ac-VEGEGEEEGEEY-OH)
- Cleavage of NS3 by VASH1 by LC-MS (in words) (VASH1/SVBP): no activity was detected
- Affinity relative to fluorescent peptide (in words) (TMCP1 [2]; NS3 vs FS2 (100 μM) in competition assay): slightly higher affinity
- IC50 (TMCP1 [2]; read-out: IC50, TMCP1 competition by NS3): ~62 µM

Compound: [Cl-].[Na+] [NaCl]
- Reduction in TMCP1 activity by NaCl (TMCP1 [2]; NaCl around 100 mM in 50 mM Tris-HCl, FS2, n = 3): 50%
- Inhibition of TMCP1 by NaCl (in words) (TMCP1 [2]; NaCl concentrations above 200 mM, n = 3): almost complete inhibition

Compound: [Cl-].[Cl-].[Zn+2] [ZnCl₂]
- Effect of metal ion on TMCP1 (immunoblot, in words) (TMCP1 [1]): inhibited
- Effect of divalent metal ion on TMCP1 activity (in words) (TMCP1 [2]; n = 3): did not restore the enzymatic activity
- Effect of divalent metal ion on TMCP1 activity (in words) (TMCP1 [2]; n = 3, listed as Zn^2+): inhibits the enzyme

Compound: NS3 (natural substrate 3, non-fluorescent peptide of the last 12 amino acids of the α-tubulin C-terminal tail)
- IC50 of the competing non-fluorescent peptide NS3 on cleavage of the fluorogenic substrate FS2 (100 μM) by TMCP1, real-time FRET enzymatic assay [3]: 62 µM
